Measurements from US7417054B2, “Naphthyridine compounds” (Janssen Pharmaceutica N.V., priority 2005, dated 2008).
Where two headings read alike, the source gives them in different places.

Key:
human H3 receptor [1] = target: T1, human H3 receptor (Homo sapiens, UniProt Q9Y5N1); test: H3 receptor binding, N-[3H]-α-methylhistamine displacement on SK-N-MC cell membranes; details: cloned human H3 receptor in SK-N-MC cell membranes; 0.8 nM N-[3H]-α-methylhistamine; 60 min at 25° C.
T1 construct: expressed in transfected cells; host or cells: SK-N-MC cells
T1 sequence (Q9Y5N1 whole entry): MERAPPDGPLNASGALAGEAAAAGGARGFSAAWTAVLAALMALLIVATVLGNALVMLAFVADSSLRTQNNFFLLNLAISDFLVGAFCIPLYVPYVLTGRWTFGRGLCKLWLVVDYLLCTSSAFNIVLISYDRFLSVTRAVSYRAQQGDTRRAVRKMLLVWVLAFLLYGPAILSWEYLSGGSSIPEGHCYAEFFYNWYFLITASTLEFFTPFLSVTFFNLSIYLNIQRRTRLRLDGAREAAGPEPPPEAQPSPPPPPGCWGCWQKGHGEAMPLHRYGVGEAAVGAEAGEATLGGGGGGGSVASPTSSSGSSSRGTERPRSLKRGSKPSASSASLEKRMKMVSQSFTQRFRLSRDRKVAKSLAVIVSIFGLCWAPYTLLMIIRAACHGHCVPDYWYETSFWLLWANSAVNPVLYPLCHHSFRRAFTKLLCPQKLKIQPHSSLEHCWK

human H3 receptor [2] = target: T1, human H3 receptor; test: Cyclic AMP accumulation, β-galactosidase reporter in SK-N-MC cells; format: cell-based
Method: Sublines of SK-N-MC cells were created that expressed a reporter construct and the human H3 receptor. The reporter gene (β-galactosidase) is under the control of multiple cyclic AMP responsive elements. In 96-well plates, histamine was added directly to the cell media followed 5 min later by an addition of forskolin (5 μM final concentration). When appropriate, antagonists were added 10 min prior to agonist addition. After a 6-h incubation at 37° C., the media was aspirated and the cells washed with 200 μL of phosphate-buffered saline followed by a second aspiration. Cells were lysed with 25 μL 0.1× assay buffer (10 mM Na-phosphate, pH 8, 0.2 mM MgSO4, 0.01 mM MnCl2) and incubated at rt for 10 min. Cells were then incubated for 10 min with 100 μL of 1× assay buffer containing 0.5% Triton and 40 mM β-mercaptoethanol. Color was developed using 25 μL of 1 mg/mL substrate solution (chlorophenolred β-D galactopyranoside; Roche Molecular Biochemicals, Indianapolis, Ind.) Color was quantitated on a microplate reader at absorbance 570 nm.

Rat SERT = Rat SERT (Rattus norvegicus, UniProt P31652); test: Rat brain SERT binding, [3H]-Citalopram displacement on rat brain membranes
Chain of Rat SERT (P31652 whole entry): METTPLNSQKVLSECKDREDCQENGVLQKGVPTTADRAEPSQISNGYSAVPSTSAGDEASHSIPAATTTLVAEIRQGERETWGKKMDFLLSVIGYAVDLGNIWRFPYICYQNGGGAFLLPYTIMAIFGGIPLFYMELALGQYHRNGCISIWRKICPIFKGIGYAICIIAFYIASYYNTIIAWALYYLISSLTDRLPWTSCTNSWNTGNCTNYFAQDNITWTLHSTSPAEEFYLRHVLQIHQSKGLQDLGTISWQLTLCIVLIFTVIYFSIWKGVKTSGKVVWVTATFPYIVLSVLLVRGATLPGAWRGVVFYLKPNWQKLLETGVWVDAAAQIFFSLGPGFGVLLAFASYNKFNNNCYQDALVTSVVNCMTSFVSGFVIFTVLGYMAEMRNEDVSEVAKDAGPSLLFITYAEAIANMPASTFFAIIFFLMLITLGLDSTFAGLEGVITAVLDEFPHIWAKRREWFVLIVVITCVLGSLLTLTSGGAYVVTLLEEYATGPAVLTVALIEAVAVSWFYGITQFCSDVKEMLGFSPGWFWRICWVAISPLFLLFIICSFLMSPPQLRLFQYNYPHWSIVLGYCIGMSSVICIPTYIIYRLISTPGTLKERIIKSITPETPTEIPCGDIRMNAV

human SERT = target: T2, human SERT (Homo sapiens, UniProt P31645); test: Human SERT binding, 3H-citalopram displacement on HEK293 membranes; details: HEK293 membranes expressing the human SERT, rt for 1 h
T2 construct: expressed in transfected cells; host or cells: HEK293
T2 sequence (P31645 whole entry): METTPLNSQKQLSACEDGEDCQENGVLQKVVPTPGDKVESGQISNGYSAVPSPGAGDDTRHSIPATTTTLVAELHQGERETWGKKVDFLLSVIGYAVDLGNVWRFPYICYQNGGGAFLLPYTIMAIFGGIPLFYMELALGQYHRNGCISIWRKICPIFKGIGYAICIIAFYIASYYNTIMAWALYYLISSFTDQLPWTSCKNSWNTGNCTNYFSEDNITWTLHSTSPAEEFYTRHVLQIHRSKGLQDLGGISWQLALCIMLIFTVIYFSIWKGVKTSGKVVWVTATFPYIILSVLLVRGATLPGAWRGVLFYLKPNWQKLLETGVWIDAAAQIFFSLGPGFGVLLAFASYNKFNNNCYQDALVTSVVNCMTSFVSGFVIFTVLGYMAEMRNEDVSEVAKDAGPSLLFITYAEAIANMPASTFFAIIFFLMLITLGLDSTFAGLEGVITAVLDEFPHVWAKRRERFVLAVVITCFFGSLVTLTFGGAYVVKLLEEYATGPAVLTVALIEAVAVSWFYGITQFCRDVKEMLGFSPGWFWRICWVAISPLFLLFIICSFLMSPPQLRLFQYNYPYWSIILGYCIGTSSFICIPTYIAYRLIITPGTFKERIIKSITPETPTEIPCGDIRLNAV
Method: Homogenized HEK293 (Human Embryonic Kidney) membranes expressing the human SERT were incubated with ^3H-citalopram (SERT) at rt for 1 h in 50 mM Tris, 120 mM NaCl, 5 mM KCl (pH 7.4). […] The membranes were washed and the radioactivity was counted as above.

[3] = read-out: Rat SERT Ki, rat brain membranes without cerebellum, 0.6 nM [3H]-Citalopram, 60 min at 25° C.
[4] = Rat SERT Ki (nM), rat brain membranes without cerebellum, 0.6 nM [3H]-Citalopram, 60 min at 25° C.

Structure (SMILES)	Ki (human H3 receptor [1]) [nM]	Kb (human H3 receptor [2]; read-out: pA2 (converted)) [nM]	Ki (Rat SERT) [nM]	Ki (Rat SERT; [4]) [nM]	Ki (human SERT) [nM]	Ki (Rat SERT; [3]) [nM]	Kb (human H3 receptor [2]) [nM]
CCN(CC)CCCOc1cc2c(cn1)C(c1ccccc1)CN(C)C2 (stereo not shown) [Example 7, Diethyl-[3-(6-methyl-8-phenyl-5,6,7,8-tetrahydro-[2,6]naphthyridin-3-yloxy)-propyl]-amine]	4	0.631	–	–	2000	583	–
c1ccc(C2CNCc3cc(OCCCN4CCCCC4)ncc32)cc1 (stereo not shown) [Example 4, 4-Phenyl-7-(3-piperidin-1-yl-propoxy)-1,2,3,4-tetrahydro-[2,6]naphthyridine]	1	0.794	–	–	2330	1670	–
COc1ccc(C2CNCc3cc(OCCCN4CCCCC4)ncc32)cc1 (stereo not shown) [Example 6, 4-(4-Methoxy-phenyl)-7-(3-piperidin-1-yl-propoxy)-1,2,3,4-tetrahydro-[2,6]-naphthyridine]	4	6.31	–	2280	147	–	–
Clc1ccc(C2CNCc3cc(OCCCN4CCCCC4)ncc32)cc1 (stereo not shown) [Example 23, 4-(4-Chloro-phenyl)-7-(3-piperidin-1-yl-propoxy)-1,2,3,4-tetrahydro-[2,6]naphthyridine]	2	3.98	–	–	141	30	–
c1ccc(C2CNCc3cc(OCCCN4CCOCC4)ncc32)cc1 (stereo not shown) [Example 47, 7-(3-Morpholin-4-yl-propoxy)-4-phenyl-1,2,3,4-tetrahydro-[2,6]naphthyridine]	11	–	–	–	–	–	12.6
COc1ccc(C2CNCc3cc(OCC4CCN(C(C)C)CC4)ncc32)cc1 (stereo not shown) [Example 31, 7-(1-Isopropyl-piperidin-4-ylmethoxy)-4-(4-methoxy-phenyl)-1,2,3,4-tetrahydro-[2,6]-naphthyridine]	4	3.98	–	–	93	15	–
CCN(CC)CCCOc1cc2c(cn1)C(c1ccccc1)CNC2 (stereo not shown) [Example 5, Diethyl-[3-(8-phenyl-5,6,7,8-tetrahydro-[2,6]naphthyridin-3-yloxy)-propyl]-amine]	1	2	–	1200	–	–	–
CCN(CC)CCCOc1cc2c(cn1)C(c1ccc(Cl)c(Cl)c1)CNC2 (stereo not shown) [Example 21, {3-[8-(3,4-Dichloro-phenyl)-5,6,7,8-tetrahydro-[2,6]naphthyridin-3-yloxy]-propyl}-diethyl-amine]	7	15.8	–	–	26	15	–
CN1Cc2cc(OCCCN3CCCCC3)ncc2C(c2ccc(Cl)c(Cl)c2)C1 (racemic) [Example 16, 4-(3,4-Dichloro-phenyl)-2-methyl-7-(3-piperidin-1-yl-propoxy)-1,2,3,4-tetrahydro-[2,6]-naphthyridine]	18	–	–	–	120	–	20
Clc1ccc(C2CNCc3cc(OCCCN4CCCCC4)ncc32)cc1Cl (racemic) [Example 15, 4-(3,4-Dichloro-phenyl)-7-(3-piperidin-1-yl-propoxy)-1,2,3,4-tetrahydro-[2,6]-naphthyridine]	5	12.6	20	–	33	–	–
Clc1ccccc1C1CNCc2cc(OCCCN3CCCCC3)ncc21 (stereo not shown) [Example 25, 4-(2-Chloro-phenyl)-7-(3-piperidin-1-yl-propoxy)-1,2,3,4-tetrahydro-[2,6]naphthyridine]	1	1	–	–	1330	194	–

Further lines, with some results ahead:

Ki (human H3 receptor [1]) [nM]	Kb (human H3 receptor [2]; read-out: pA2 (converted)) [nM]	Ki (Rat SERT) [nM]	Ki (Rat SERT; [4]) [nM]	Structure (SMILES)	Ki (human SERT) [nM]	Ki (Rat SERT; [3]) [nM]	Kb (human H3 receptor [2]) [nM]
1	0.794	1000	–	Fc1ccccc1C1CNCc2cc(OCCCN3CCCCC3)ncc21 (stereo not shown) [Example 1, 4-(2-Fluoro-phenyl)-7-(3-piperidin-1-yl-propoxy)-1,2,3,4-tetrahydro-[2,6]naphthyridine]	–	–	–
1	1	179	–	COc1cccc(C2CNCc3cc(OCCCN4CCCCC4)ncc32)c1 (stereo not shown) [Example 13, 4-(3-Methoxy-phenyl)-7-(3-piperidin-1-yl-propoxy)-1,2,3,4-tetrahydro-[2,6]-naphthyridine]	–	–	–
2	2.51	312	–	Fc1ccc(C2CNCc3cc(OCCCN4CCCCC4)ncc32)cc1 (stereo not shown) [Example 17, 4-(4-Fluoro-phenyl)-7-(3-piperidin-1-yl-propoxy)-1,2,3,4-tetrahydro-[2,6]naphthyridine]	1030	–	–
9	3.98	–	–	CN1Cc2cc(OCCCN3CCCCC3)ncc2C(c2ccc(F)cc2)C1 (stereo not shown) [Example 18, 4-(4-Fluoro-phenyl)-2-methyl-7-(3-piperidin-1-yl-propoxy)-1,2,3,4-tetrahydro-[2,6]-naphthyridine]	362	186	–
1	3.16	142	–	Fc1ccc(C2CNCc3cc(OCCCN4CCCCC4)ncc32)cc1Cl (stereo not shown) [Example 33, 4-(3-Chloro-4-fluoro-phenyl)-7-(3-piperidin-1-yl-propoxy)-1,2,3,4-tetrahydro-[2,6]naphthyridine]	–	–	–
2	1	186	–	CN1Cc2cc(OCCCN3CCCCC3)ncc2C(c2cccc(F)c2)C1 (stereo not shown) [Example 34, 4-(3-Fluoro-phenyl)-2-methyl-7-(3-piperidin-1-yl-propoxy)-1,2,3,4-tetrahydro-[2,6]-naphthyridine]	–	–	–
2	2.51	–	269	Clc1cccc(C2CNCc3cc(OCCCN4CCCCC4)ncc32)c1 (stereo not shown) [Example 24, 4-(3-Chloro-phenyl)-7-(3-piperidin-1-yl-propoxy)-1,2,3,4-tetrahydro-[2,6]naphthyridine]	–	–	–
2	1	–	–	CN1Cc2cc(OCCCN3CCCCC3)ncc2C(c2ccccc2F)C1 (stereo not shown) [Example 2, 4-(2-Fluoro-phenyl)-2-methyl-7-(3-piperidin-1-yl-propoxy)-1,2,3,4-tetrahydro-[2,6]-naphthyridine]	768	191	–
2	2.51	2000	–	Fc1cccc(C2CNCc3cc(OCCCN4CCCCC4)ncc32)c1 (stereo not shown) [Example 32, 4-(3-Fluoro-phenyl)-7-(3-piperidin-1-yl-propoxy)-1,2,3,4-tetrahydro-[2,6]naphthyridine]	–	–	–
